Assays:
Experiment in all cases: cells
COLO-792 = format: functional, cell-based, Homo sapiens; conditions: Homo sapiens, COLO-792
Description: SANGER: Inhibition of human COLO-792 cell growth in a cell viability assay.

COR-L88 = format: functional, cell-based; conditions: Homo sapiens
Description: SANGER: Inhibition of human COR-L88 cell growth in a cell viability assay.

CP50-MEL-B = format: functional, cell-based, Homo sapiens; conditions: Homo sapiens, CP50-MEL-B
Description: SANGER: Inhibition of human CP50-MEL-B cell growth in a cell viability assay.

CTB-1 = format: functional, cell-based; conditions: Homo sapiens
Description: SANGER: Inhibition of human CTB-1 cell growth in a cell viability assay.

Calu-6 = format: functional, cell-based, Homo sapiens; conditions: Homo sapiens, Calu-6
Description: SANGER: Inhibition of human Calu-6 cell growth in a cell viability assay.

D-502MG = format: functional, cell-based, Homo sapiens; conditions: Homo sapiens, D-502MG
Description: SANGER: Inhibition of human D-502MG cell growth in a cell viability assay.

DJM-1 = format: functional, cell-based, Homo sapiens; conditions: Homo sapiens, DJM-1
Description: SANGER: Inhibition of human DJM-1 cell growth in a cell viability assay.

GAK = format: functional, cell-based, Homo sapiens; conditions: Homo sapiens, GAK
Description: SANGER: Inhibition of human GAK cell growth in a cell viability assay.

GT3TKB = format: functional, cell-based, Homo sapiens; conditions: Homo sapiens, GT3TKB
Description: SANGER: Inhibition of human GT3TKB cell growth in a cell viability assay.

HD-MY-Z = format: functional, cell-based, Homo sapiens; conditions: Homo sapiens, HD-MY-Z
Description: SANGER: Inhibition of human HD-MY-Z cell growth in a cell viability assay.

HSC-2 = format: functional, cell-based, Homo sapiens; conditions: Homo sapiens, HSC-2
Description: SANGER: Inhibition of human HSC-2 cell growth in a cell viability assay.

HT-29 = format: functional, cell-based, Homo sapiens; conditions: Homo sapiens, HT-29
Description: SANGER: Inhibition of human HT-29 cell growth in a cell viability assay.

J-RT3-T3-5 = format: functional, cell-based; conditions: Homo sapiens
Description: SANGER: Inhibition of human J-RT3-T3-5 cell growth in a cell viability assay.

J82 = format: functional, cell-based; conditions: Homo sapiens
Description: SANGER: Inhibition of human J82 cell growth in a cell viability assay.

KNS-42 = format: functional, cell-based, Homo sapiens; conditions: Homo sapiens, KNS-42
Description: SANGER: Inhibition of human KNS-42 cell growth in a cell viability assay.

KYSE-180 = format: functional, cell-based, Homo sapiens; conditions: Homo sapiens, KYSE-180
Description: SANGER: Inhibition of human KYSE-180 cell growth in a cell viability assay.

LAMA-84 = format: functional, cell-based; conditions: Homo sapiens
Description: SANGER: Inhibition of human LAMA-84 cell growth in a cell viability assay.

LAN-6 = format: functional, cell-based, Homo sapiens; conditions: Homo sapiens, LAN-6
Description: SANGER: Inhibition of human LAN-6 cell growth in a cell viability assay.

LN-405 = format: functional, cell-based, Homo sapiens; conditions: Homo sapiens, LN-405
Description: SANGER: Inhibition of human LN-405 cell growth in a cell viability assay.

LU-99A = format: functional, cell-based, Homo sapiens; conditions: Homo sapiens, LU-99A
Description: SANGER: Inhibition of human LU-99A cell growth in a cell viability assay.

LXF-289 cell line = format: functional, cell-based, Homo sapiens; conditions: Homo sapiens, LXF-289
Description: SANGER: Inhibition of human LXF-289 cell growth in a cell viability assay.

MHH-ES-1 = format: functional, cell-based, Homo sapiens; conditions: Homo sapiens, MHH-ES-1
Description: SANGER: Inhibition of human MHH-ES-1 cell growth in a cell viability assay.

NB13 = format: functional, cell-based, Homo sapiens; conditions: Homo sapiens, NB13
Description: SANGER: Inhibition of human NB13 cell growth in a cell viability assay.

NCI-H1623 = format: functional, cell-based, Homo sapiens; conditions: Homo sapiens, NCI-H1623
Description: SANGER: Inhibition of human NCI-H1623 cell growth in a cell viability assay.

NCI-H2122 = format: functional, cell-based, Homo sapiens; conditions: Homo sapiens, NCI-H2122
Description: SANGER: Inhibition of human NCI-H2122 cell growth in a cell viability assay.

NCI-H2170 = format: functional, cell-based, Homo sapiens; conditions: Homo sapiens, NCI-H2170
Description: SANGER: Inhibition of human NCI-H2170 cell growth in a cell viability assay.

NCI-H28 = format: functional, cell-based, Homo sapiens; conditions: Homo sapiens, NCI-H28
Description: SANGER: Inhibition of human NCI-H28 cell growth in a cell viability assay.

PANC-03-27 = format: functional, cell-based, Homo sapiens; conditions: Homo sapiens, PANC-03-27
Description: SANGER: Inhibition of human PANC-03-27 cell growth in a cell viability assay.

PC-14 = format: functional, cell-based, Homo sapiens; conditions: Homo sapiens, PC-14
Description: SANGER: Inhibition of human PC-14 cell growth in a cell viability assay.

RPMI-8866 = format: functional, cell-based; conditions: Homo sapiens
Description: SANGER: Inhibition of human RPMI-8866 cell growth in a cell viability assay.

SHP77 = format: functional, cell-based, Homo sapiens, SHP-77; conditions: Homo sapiens, SHP77
Description: SANGER: Inhibition of human SHP-77 cell growth in a cell viability assay.

SK-MEL-28 = format: functional, cell-based; conditions: Homo sapiens
Description: SANGER: Inhibition of human SK-MEL-28 cell growth in a cell viability assay.

SK-PN-DW = format: functional, cell-based; conditions: Homo sapiens
Description: SANGER: Inhibition of human SK-PN-DW cell growth in a cell viability assay.

SNU-C2B = format: functional, cell-based, Homo sapiens; conditions: Homo sapiens, SNU-C2B
Description: SANGER: Inhibition of human SNU-C2B cell growth in a cell viability assay.

SAOS-2 = format: functional, cell-based, Homo sapiens; conditions: Homo sapiens, SAOS-2
Description: SANGER: Inhibition of human Saos-2 cell growth in a cell viability assay.

769-P = format: functional, cell-based, Homo sapiens; conditions: Homo sapiens, 769-P
Description: SANGER: Inhibition of human 769-P cell growth in a cell viability assay.

A204 = format: functional, cell-based, Homo sapiens; conditions: Homo sapiens, A204
Description: SANGER: Inhibition of human A204 cell growth in a cell viability assay.

A-427 = format: functional, cell-based, Homo sapiens; conditions: Homo sapiens, A-427
Description: SANGER: Inhibition of human A427 cell growth in a cell viability assay.

BB30-HNC = format: functional, cell-based, Homo sapiens; conditions: Homo sapiens, BB30-HNC
Description: SANGER: Inhibition of human BB30-HNC cell growth in a cell viability assay.

BHT-101 = format: functional, cell-based, Homo sapiens; conditions: Homo sapiens, BHT-101
Description: SANGER: Inhibition of human BHT-101 cell growth in a cell viability assay.

BPH-1 = format: functional, cell-based, Homo sapiens; conditions: Homo sapiens, BPH-1
Description: SANGER: Inhibition of human BPH-1 cell growth in a cell viability assay.

BV-173 = format: functional, cell-based; conditions: Homo sapiens
Description: SANGER: Inhibition of human BV-173 cell growth in a cell viability assay.

C2BBe1 = format: functional, cell-based, Homo sapiens; conditions: Homo sapiens, C2BBe1
Description: SANGER: Inhibition of human C2BBe1 cell growth in a cell viability assay.

CAL-12T = format: functional, cell-based, Homo sapiens; conditions: Homo sapiens, CAL-12T
Description: SANGER: Inhibition of human CAL-12T cell growth in a cell viability assay.

TE-9 = format: functional, cell-based, Homo sapiens; conditions: Homo sapiens, TE-9
Description: SANGER: Inhibition of human TE-9 cell growth in a cell viability assay.

TK-10 = format: functional, cell-based, Homo sapiens; conditions: Homo sapiens, TK-10
Description: SANGER: Inhibition of human TK10 cell growth in a cell viability assay.

VM-CUB-1 = format: functional, cell-based; conditions: Homo sapiens
Description: SANGER: Inhibition of human VM-CUB-1 cell growth in a cell viability assay.

YKG-1 = format: functional, cell-based, Homo sapiens; conditions: Homo sapiens, YKG-1
Description: SANGER: Inhibition of human YKG-1 cell growth in a cell viability assay.

CGTH-W-1 = format: functional, cell-based, Homo sapiens; conditions: Homo sapiens, CGTH-W-1
Description: SANGER: Inhibition of human CGTH-W-1 cell growth in a cell viability assay.

COLO-678 = format: functional, cell-based, Homo sapiens; conditions: Homo sapiens, COLO-678
Description: SANGER: Inhibition of human COLO-678 cell growth in a cell viability assay.

COLO-680N = format: functional, cell-based, Homo sapiens; conditions: Homo sapiens, COLO-680N
Description: SANGER: Inhibition of human COLO-680N cell growth in a cell viability assay.

## COc1cc([C@@H]2c3cc4c(cc3[C@@H](O[C@@H]3O[C@@H]5CO[C@@H](C)O[C@H]5[C@H](O)[C@H]3O)[C@H]3COC(=O)[C@H]23)OCO4)cc(OC)c1O [ETOPOSIDE]
COLO-792
  IC50: > 16000 nM
COR-L88
  IC50: > 16000 nM
CP50-MEL-B
  IC50: > 16000 nM
CTB-1
  IC50: 1690 nM
Calu-6
  IC50: 4060 nM
D-502MG
  IC50: > 16000 nM
DJM-1
  IC50: 203 nM
GAK
  IC50: > 16000 nM
GT3TKB
  IC50: 406 nM
HD-MY-Z
  IC50: 8540 nM
HSC-2
  IC50: 706 nM
HT-29
  IC50: 1980 nM
J-RT3-T3-5
  IC50: 1590 nM
J82
  IC50: 3340 nM
KNS-42
  IC50: 13700 nM
KYSE-180
  IC50: 2070 nM
LAMA-84
  IC50: 9210 nM
LAN-6
  IC50: > 16000 nM
LN-405
  IC50: > 16000 nM
LU-99A
  IC50: 2430 nM
LXF-289 cell line
  IC50: 2080 nM
MHH-ES-1
  IC50: 463 nM
NB13
  IC50: 2760 nM
NCI-H1623
  IC50: 14000 nM
NCI-H2122
  IC50: 5390 nM
NCI-H2170
  IC50: 1850 nM
NCI-H28
  IC50: > 16000 nM
PANC-03-27
  IC50: 1640 nM
PC-14
  IC50: 9720 nM
RPMI-8866
  IC50: 4650 nM
SHP77
  IC50: > 16000 nM
SK-MEL-28
  IC50: > 16000 nM
SK-PN-DW
  IC50: 342 nM
SNU-C2B
  IC50: > 16000 nM
SAOS-2
  IC50: > 16000 nM
769-P
  IC50: 2260 nM
A204
  IC50: 232 nM
A-427
  IC50: 103 nM
BB30-HNC
  IC50: 64.2 nM
BHT-101
  IC50: 3110 nM
BPH-1
  IC50: 943 nM
BV-173
  IC50: 5050 nM
C2BBe1
  IC50: > 16000 nM
CAL-12T
  IC50: 11100 nM
TE-9
  IC50: 55.9 nM
TK-10
  IC50: 7490 nM
VM-CUB-1
  IC50: 2580 nM
YKG-1
  IC50: 1230 nM
CGTH-W-1
  IC50: 57.4 nM
COLO-678
  IC50: > 16000 nM
COLO-680N
  IC50: 8260 nM

## Cc1cnc(-c2cnc(NCCNc3ccc(C#N)cn3)nc2-c2ccc(Cl)cc2Cl)[nH]1 [LADUVIGLUSIB]
COLO-792
  IC50: > 2560 nM
COR-L88
  IC50: > 2560 nM
CP50-MEL-B
  IC50: > 2560 nM
CTB-1
  IC50: > 2560 nM
Calu-6
  IC50: > 2560 nM
D-502MG
  IC50: > 2560 nM
DJM-1
  IC50: > 2560 nM
GAK
  IC50: > 2560 nM
GT3TKB
  IC50: > 2560 nM
HD-MY-Z
  IC50: > 2560 nM
HSC-2
  IC50: > 2560 nM
HT-29
  IC50: > 2560 nM
J-RT3-T3-5
  IC50: > 2560 nM
J82
  IC50: > 2560 nM
KNS-42
  IC50: > 2560 nM
KYSE-180
  IC50: 1730 nM
LAMA-84
  IC50: > 2560 nM
LAN-6
  IC50: > 2560 nM
LN-405
  IC50: > 2560 nM
LU-99A
  IC50: > 2560 nM
LXF-289 cell line
  IC50: > 2560 nM
MHH-ES-1
  IC50: > 2560 nM
NB13
  IC50: > 2560 nM
NCI-H1623
  IC50: > 2560 nM
NCI-H2122
  IC50: 2280 nM
NCI-H2170
  IC50: > 2560 nM
NCI-H28
  IC50: > 2560 nM
PANC-03-27
  IC50: > 2560 nM
PC-14
  IC50: > 2560 nM
RPMI-8866
  IC50: > 2560 nM
SHP77
  IC50: > 2560 nM
SK-MEL-28
  IC50: > 2560 nM
SK-PN-DW
  IC50: > 2560 nM
SNU-C2B
  IC50: > 2560 nM
SAOS-2
  IC50: > 2560 nM
769-P
  IC50: 585 nM
A204
  IC50: > 2560 nM
A-427
  IC50: > 2560 nM
BB30-HNC
  IC50: > 2560 nM
BHT-101
  IC50: > 2560 nM
BPH-1
  IC50: > 2560 nM
BV-173
  IC50: > 2560 nM
C2BBe1
  IC50: > 2560 nM
CAL-12T
  IC50: > 2560 nM
TE-9
  IC50: > 2560 nM
TK-10
  IC50: > 2560 nM
VM-CUB-1
  IC50: > 2560 nM
YKG-1
  IC50: > 2560 nM
CGTH-W-1
  IC50: > 2560 nM
COLO-678
  IC50: > 2560 nM
COLO-680N
  IC50: > 2560 nM

Source: ChEMBL document CHEMBL1201861, “Genomics of Drug Sensitity in Cancer screening data, Wellcome Trust Sanger Institute”
